Measured values reported in ChEMBL document CHEMBL4219129, “Design, synthesis and biological evaluation of spiropyrimidinetriones oxazolidinone derivatives as antibacterial agents” (2018).
Values after ≈ are worked out from the molar mass of the structure shown.

Legend:
Format in all cases: functional
Enterococcus faecium [1] = test: Antibacterial activity against vancomycin-resistant Enterococcus faecium R1
Enterococcus faecium [2] = test: Antibacterial activity against Enterococcus faecium 575
Staphylococcus aureus [3] = test: Antibacterial activity against PVL positive Staphylococcus aureus
Staphylococcus aureus [4] = test: Antibacterial activity against Staphylococcus aureus ATCC 29213
Staphylococcus aureus [5] = test: Antibacterial activity against Staphylococcus aureus FDA 209P
Staphylococcus aureus [6] = test: Antibacterial activity against methicillin-resistant Staphylococcus aureus 562
Staphylococcus aureus [7] = test: Antibacterial activity against methicillin-resistant Staphylococcus aureus 1201984
Staphylococcus aureus [8] = test: Antibacterial activity against methicillin-resistant Staphylococcus aureus DB-00026
Staphylococcus aureus [9] = test: Antibacterial activity against methicillin-resistant Staphylococcus aureus USA300 BAA-1556
Staphylococcus aureus [10] = test: Antibacterial activity against Staphylococcus aureus Mu50 ATCC 700699
Staphylococcus aureus [11] = test: Antibacterial activity against linezolid-resistant Staphylococcus aureus O-128
Staphylococcus aureus [12] = test: Antibacterial activity against […] Staphylococcus aureus ATCC 13709 SMITH
[13] = tested on: Staphylococcus epidermidis; test: Antibacterial activity against Staphylococcus epidermidis ATCC 12228
[14] = tested on: Staphylococcus epidermidis; test: Antibacterial activity against methicillin-resistant Staphylococcus epidermidis ATCC 35984
[15] = tested on: Staphylococcus epidermidis; test: Antibacterial activity against linezolid-resistant Staphylococcus epidermidis 1117174
[16] = tested on: Staphylococcus epidermidis; test: Antibacterial activity against linezolid-resistant Staphylococcus epidermidis 1089191
Escherichia coli [17] = test: Antibacterial activity against TolC-deficient Escherichia coli
Escherichia coli [18] = test: Antibacterial activity against Escherichia coli MG1655; details: K-12 substr. MG1655
Enterococcus faecalis [19] = test: Antibacterial activity against Enterococcus faecalis ATCC 51299
Enterococcus faecalis [20] = test: Antibacterial activity against linezolid-resistant Enterococcus faecalis ATCC 29212
Enterococcus faecium [21] = test: Antibacterial activity against Enterococcus faecium ATCC 19434
Enterococcus faecium [22] = test: Antibacterial activity against vancomycin-resistant Enterococcus faecium 6A
Enterococcus faecium [23] = test: Antibacterial activity against vancomycin-resistant Enterococcus faecium 03080 DS
Enterococcus faecium [24] = test: Antibacterial activity against Enterococcus faecium ATCC 35667
Enterococcus faecalis [25] = test: Antibacterial activity against Enterococcus faecalis ATCC 19434
Enterococcus faecalis [26] = test: Antibacterial activity against Enterococcus faecalis ATCC 29212
Enterococcus faecium [27] = test: Antibacterial activity against vancomycin-resistant Enterococcus faecium 134
Enterococcus faecium [28] = test: Antibacterial activity against Enterococcus faecium 45/146
Enterococcus faecium [29] = test: Antibacterial activity against linezolid-resistant Enterococcus faecium 303
Enterococcus faecium [30] = test: Antibacterial activity against Enterococcus faecium NLNZ 572
Enterococcus faecium [31] = test: Antibacterial activity against vancomycin-resistant Enterococcus faecium 31/132
Enterococcus faecium [32] = test: Antibacterial activity against vancomycin-resistant Enterococcus faecium 32/133

SMILES: COC(=O)NC[C@H]1CN(c2ccc(-c3ccc4c(c3)CC3(C(=O)NC(=O)NC3=O)C3CCCN43)c(F)c2)C(=O)O1 (some centres undefined)
- MIC (Enterococcus faecium [1]): 8 µg/mL (≈ 14.5 µM)
- MIC (Enterococcus faecium [2]): 16 µg/mL (≈ 29 µM)
- MIC (Staphylococcus aureus [3]): 2 µg/mL (≈ 3.63 µM)
- MIC (Staphylococcus aureus [4]): 2 µg/mL (≈ 3.63 µM)
- MIC (Staphylococcus aureus [5]): 4 µg/mL (≈ 7.25 µM)
- MIC (Staphylococcus aureus [6]): 2 µg/mL (≈ 3.63 µM)
- MIC (Staphylococcus aureus [7]): 2 µg/mL (≈ 3.63 µM)
- MIC (Staphylococcus aureus [8]): 4 µg/mL (≈ 7.25 µM)
- MIC (Staphylococcus aureus [9]): 4 µg/mL (≈ 7.25 µM)
- MIC (Staphylococcus aureus [10]): 2 µg/mL (≈ 3.63 µM)
- MIC (Staphylococcus aureus [11]): 16 µg/mL (≈ 29 µM)
- MIC (Staphylococcus aureus [12]): > 32 µg/mL
- MIC [13]: 2 µg/mL (≈ 3.63 µM)
- MIC [14]: 2 µg/mL (≈ 3.63 µM)
- MIC [15]: 32 µg/mL (≈ 58 µM)
- MIC [16]: 32 µg/mL (≈ 58 µM)
- MIC (Escherichia coli [17]): 4 µg/mL (≈ 7.25 µM)
- MIC (Escherichia coli [18]): > 32 µg/mL
- MIC (Enterococcus faecalis [19]): 8 µg/mL (≈ 14.5 µM)
- MIC (Enterococcus faecalis [20]): 16 µg/mL (≈ 29 µM)
- MIC (Enterococcus faecium [21]): 16 µg/mL (≈ 29 µM)
- MIC (Enterococcus faecium [22]): 8 µg/mL (≈ 14.5 µM)
- MIC (Enterococcus faecium [23]): 8 µg/mL (≈ 14.5 µM)
- MIC (Enterococcus faecium [24]): 8 µg/mL (≈ 14.5 µM)
- MIC (Enterococcus faecalis [25]): 16 µg/mL (≈ 29 µM)
- MIC (Enterococcus faecalis [26]): 8 µg/mL (≈ 14.5 µM)
- MIC (Enterococcus faecium [27]): 16 µg/mL (≈ 29 µM)
- MIC (Enterococcus faecium [28]): 8 µg/mL (≈ 14.5 µM)
- MIC (Enterococcus faecium [29]): > 32 µg/mL
- MIC (Enterococcus faecium [30]): 32 µg/mL (≈ 58 µM)
- MIC (Enterococcus faecium [31]): 16 µg/mL (≈ 29 µM)
- MIC (Enterococcus faecium [32]): 16 µg/mL (≈ 29 µM)

SMILES: O=C1NC(=O)C2(Cc3cc(-c4ccc(N5C[C@H](CO)OC5=O)cc4F)ccc3N3CCCCC32)C(=O)N1 (some centres undefined)
- MIC (Enterococcus faecium [1]): 0.25 µg/mL (≈ 0.492 µM)
- MIC (Enterococcus faecium [2]): 2 µg/mL (≈ 3.93 µM)
- MIC (Staphylococcus aureus [3]): 2 µg/mL (≈ 3.93 µM)
- MIC (Staphylococcus aureus [4]): 4 µg/mL (≈ 7.87 µM)
- MIC (Staphylococcus aureus [5]): 4 µg/mL (≈ 7.87 µM)
- MIC (Staphylococcus aureus [6]): 2 µg/mL (≈ 3.93 µM)
- MIC (Staphylococcus aureus [7]): 2 µg/mL (≈ 3.93 µM)
- MIC (Staphylococcus aureus [8]): 4 µg/mL (≈ 7.87 µM)
- MIC (Staphylococcus aureus [9]): 4 µg/mL (≈ 7.87 µM)
- MIC (Staphylococcus aureus [10]): 2 µg/mL (≈ 3.93 µM)
- MIC (Staphylococcus aureus [11]): 16 µg/mL (≈ 31.5 µM)
- MIC (Staphylococcus aureus [12]): 16 µg/mL (≈ 31.5 µM)
- MIC [13]: 2 µg/mL (≈ 3.93 µM)
- MIC [14]: ≤ 1 µg/mL
- MIC [15]: 32 µg/mL (≈ 62.9 µM)
- MIC [16]: > 32 µg/mL
- MIC (Escherichia coli [17]): 4 µg/mL (≈ 7.87 µM)
- MIC (Escherichia coli [18]): > 32 µg/mL
- MIC (Enterococcus faecalis [19]): 1 µg/mL (≈ 1.97 µM)
- MIC (Enterococcus faecalis [20]): 2 µg/mL (≈ 3.93 µM)
- MIC (Enterococcus faecium [21]): 2 µg/mL (≈ 3.93 µM)
- MIC (Enterococcus faecium [22]): 1 µg/mL (≈ 1.97 µM)
- MIC (Enterococcus faecium [23]): 1 µg/mL (≈ 1.97 µM)
- MIC (Enterococcus faecium [24]): 1 µg/mL (≈ 1.97 µM)
- MIC (Enterococcus faecalis [25]): 2 µg/mL (≈ 3.93 µM)
- MIC (Enterococcus faecalis [26]): 2 µg/mL (≈ 3.93 µM)
- MIC (Enterococcus faecium [27]): 2 µg/mL (≈ 3.93 µM)
- MIC (Enterococcus faecium [28]): 1 µg/mL (≈ 1.97 µM)
- MIC (Enterococcus faecium [29]): 8 µg/mL (≈ 15.7 µM)
- MIC (Enterococcus faecium [30]): 4 µg/mL (≈ 7.87 µM)
- MIC (Enterococcus faecium [31]): 2 µg/mL (≈ 3.93 µM)
- MIC (Enterococcus faecium [32]): 2 µg/mL (≈ 3.93 µM)
